In patent US20250325534A1, “MICROBIOCIDAL TETRAHYDROISOQUINOLINE DERIVATIVES” (SYNGENTA CROP PROTECTION AG, priority 2021, published 2025):

Legend:
[1] = test system: Mycosphaerella graminicola; assay: Mycosphaerella graminicola (Septoria tritici) / liquid culture (Septoria blotch); type: cell-based; details: Zymoseptoria tritici, 96 h, photometrically 4-5 days after application, read-out: control of Mycosphaerella graminicola
Method in brief: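 Conidia from cryogenic storage mixed into potato dextrose broth, added to test compound in DMSO. Plates incubated at 24° C; growth inhibition read photometrically 4-5 days after application.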

[2] = test system: Alternaria solani; assay: Alternaria solani / tomato / leaf disc (early blight); type: in vivo; details: foliar, inoculated 2 days after application, vs untreated control
Description: Example B1: Alternaria solani/Tomato/Leaf Disc (Early Blight) Tomato leaf disks cv. Baby are placed on agar in multiwell plates (24-well format) and sprayed with the formulated test compound diluted in water. The leaf disks are inoculated with a spore suspension of the fungus 2 days after application. The inoculated leaf disks are incubated at 23° C./21° C. (day/night) and 80% relative humidity under a light regime of 12 h/12 h (light/dark) in a climate cabinet and the activity of a compound is assessed as percent disease control compared to untreated when an appropriate level of disease damage appears on untreated check disk leaf disks (5-7 days after application).

[3] = test system: Mycosphaerella arachidis; assay: Mycosphaerella arachidis (Cercospora arachidicola) / liquid culture (early leaf spot); type: cell-based; details: 96 h, photometrically 4-5 days after application, read-out: control of Mycosphaerella arachidis
Description: (§1) Example B11: Mycosphaerella arachidis (Cercospora arachidicola)/Liquid Culture (Early Leaf Spot) Conidia of the fungus from cryogenic storage are directly mixed into a nutrient broth (potato dextrose broth). After placing a DMSO solution of test compound into a microtiter plate (96-well format), the nutrient broth containing the fungal spores is added. The test plates are incubated at 24° C. and the inhibition of growth is determined photometrically 4-5 days after application.

[4] = test system: Monographella nivalis; assay: Monographella nivalis (Microdochium nivale) / liquid culture (foot rot cereals); type: cell-based; details: 96 h, photometrically 4-5 days after application, read-out: control of Monographella nivalis
Description: as §1, with “B10: Monographella nivalis (Microdochium nivale)/Liquid” for “B11: Mycosphaerella arachidis (Cercospora arachidicola)/Liquid”, “(Foot Rot Cereals)” for “(Early Leaf Spot)”

[5] = test system: Glomerella lagenarium; assay: Glomerella lagenarium (Colletotrichum lagenarium) / liquid culture (anthracnose); type: cell-based; details: Colletotrichum orbiculare, 72 h, photometrically 3-4 days after application, read-out: control of Glomerella lagenarium
Description: as §1, with “B5: Glomerella Lagenarium (Colletotrichum Lagenarium)/Liquid” for “B11: Mycosphaerella arachidis (Cercospora arachidicola)/Liquid”, “(Anthracnose)” for “(Early Leaf Spot)”, “measured” for “determined”, “3-4” for “4-5”

| SMILES | inhibition of growth at 20 ppm [1] | pest or weed control at 200 ppm [2] | inhibition of growth at 20 ppm [3] | inhibition of growth at 20 ppm [4] | inhibition of growth at 20 ppm [5] |
| --- | --- | --- | --- | --- | --- |
| Cc1nn(C)c(C)c1C1CN(C(=O)c2cc(-c3ccc(F)cc3F)sn2)Cc2ccccc21 (centres unmarked) [Compound P-115, [5-(2,4-difluorophenyl)isothiazol-3-yl]-[4-(1,3,5-trimethylpyrazol-4-yl)-3,4-dihydro-1H-isoquinolin-2-yl]methanone] | ≥ 80% | ≥ 80% |  |  |  |
| Cn1cc(C2CN(C(=O)c3cc(-c4cccc(F)c4)on3)Cc3ccccc32)cn1 (centres unmarked) [Compound P-168, [5-(3-fluorophenyl)isoxazol-3-yl]-[4-(1-methylpyrazol-4-yl)-3,4-dihydro-1H-isoquinolin-2-yl]methanone] | ≥ 80% | ≥ 80% |  |  |  |
| Cn1cc([C@]2(C)CN(C(=O)c3nnc(-c4ccc(F)cc4F)s3)Cc3ccccc32)cn1 [Compound P-208, [5-(2,4-difluorophenyl)-1,3,4-thiadiazol-2-yl]-[(4R)-4-methyl-4-(1-methylpyrazol-4-yl)-1,3-dihydroisoquinolin-2-yl]methanone] |  | ≥ 80% |  |  |  |
| Cn1ncc(C2CN(C(=O)c3cc(-c4ccc(F)cc4F)on3)Cc3ccccc32)c1Cl (centres unmarked) [Compound P-38, [4-(5-chloro-1-methyl-pyrazol-4-yl)-3,4-dihydro-1H-isoquinolin-2-yl]-[5-(2,4-difluorophenyl)isoxazol-3-yl]methanone] |  | ≥ 80% |  |  |  |
| Cn1cc(C2CN(C(=O)c3nnc(-c4ccc(F)cc4F)o3)Cc3ccccc32)cn1 (centres unmarked) [Compound P-55, [5-(2,4-difluorophenyl)-1,3,4-oxadiazol-2-yl]-[4-(1-methylpyrazol-4-yl)-3,4-dihydro-1H-isoquinolin-2-yl]methanone] | ≥ 80% | ≥ 80% |  |  |  |
| Cn1cc(C2CN(C(=O)c3noc(-c4ccccc4)n3)Cc3ccccc32)cn1 (centres unmarked) [Compound P-146, [4-(1-methylpyrazol-4-yl)-3,4-dihydro-1H-isoquinolin-2-yl]-(5-phenyl-1,2,4-oxadiazol-3-yl)methanone] |  | ≥ 80% |  |  |  |
| Cn1cc(C2CN(C(=O)c3cc(C4CCC4)on3)Cc3ccccc32)cn1 (centres unmarked) [Compound P-182, (5-cyclobutylisoxazol-3-yl)-[4-(1-methylpyrazol-4-yl)-3,4-dihydro-1H-isoquinolin-2-yl]methanone] | ≥ 80% | ≥ 80% | ≥ 80% |  |  |
| Cn1cc(C2(C)CN(C(=O)c3nnc(-c4ccc(F)cc4F)s3)Cc3ccccc32)cn1 (centres unmarked) [Compound P-207, [5-(2,4-difluorophenyl)-1,3,4-thiadiazol-2-yl]-[4-methyl-4-(1-methylpyrazol-4-yl)-1,3-dihydroisoquinolin-2-yl]methanone] |  | ≥ 80% |  |  |  |
| Cn1cc(C2CN(C(=O)c3cc(-c4ccc(F)cc4F)on3)Cc3cc(F)ccc32)cn1 (centres unmarked) [Compound P-134, [5-(2,4-difluorophenyl)isoxazol-3-yl]-[7-fluoro-4-(1-methylpyrazol-4-yl)-3,4-dihydro-1H-isoquinolin-2-yl]methanone] | ≥ 80% | ≥ 80% | ≥ 80% | ≥ 80% |  |
| Cc1nn(C)c(C)c1C1CN(C(=O)c2cc(-c3ccc(F)cc3)on2)Cc2ccccc21 (centres unmarked) [Compound P-118, [5-(4-fluorophenyl)isoxazol-3-yl]-[4-(1,3,5-trimethylpyrazol-4-yl)-3,4-dihydro-1H-isoquinolin-2-yl]methanone] | ≥ 80% | ≥ 80% | ≥ 80% |  |  |
| Cn1ncc(C2CN(C(=O)c3cc(-c4ccc(F)cc4F)on3)Cc3ccccc32)c1F (centres unmarked) [Compound P-52, [5-(2,4-difluorophenyl)isoxazol-3-yl]-[4-(5-fluoro-1-methyl-pyrazol-4-yl)-3,4-dihydro-1H-isoquinolin-2-yl]methanone] |  | ≥ 80% |  |  |  |
| COC(=O)C1c2ccccc2C(c2cnn(C)c2)CN1C(=O)c1cc(-c2ccc(F)cc2F)on1 (centres unmarked) [Compound P-42, methyl 2-[5-(2,4-difluorophenyl)isoxazole-3-carbonyl]-4-(1-methylpyrazol-4-yl)-3,4-dihydro-1H-isoquinoline-1-carboxylate] |  | ≥ 80% |  |  |  |
| Cc1c(C2CN(C(=O)c3nnc(-c4ccc(F)cc4F)o3)Cc3ccccc32)cnn1C (centres unmarked) [Compound P-225] |  | ≥ 80% |  |  |  |
| Cn1cc(C2CN(C(=O)c3cc(-c4ccccc4F)on3)Cc3ccccc32)cn1 (centres unmarked) [Compound P-191, [5-(2-fluorophenyl)isoxazol-3-yl]-[4-(1-methylpyrazol-4-yl)-3,4-dihydro-1H-isoquinolin-2-yl]methanone] | ≥ 80% | ≥ 80% | ≥ 80% | ≥ 80% | ≥ 80% |
| Cn1cc(C2CN(C(=O)c3nc(-c4ccc(F)cc4F)no3)Cc3ccccc32)cn1 (centres unmarked) [Compound P-127, [3-(2,4-difluorophenyl)-1,2,4-oxadiazol-5-yl]-[4-(1-methylpyrazol-4-yl)-3,4-dihydro-1H-isoquinolin-2-yl]methanone] | ≥ 80% | ≥ 80% |  | ≥ 80% |  |
| Cc1nn(C)c(C)c1C1CN(C(=O)c2cc(-c3ccc(F)cc3F)on2)Cc2ncccc21 (centres unmarked) [Compound P-124, [5-(2,4-difluorophenyl)isoxazol-3-yl]-[5-(1,3,5-trimethylpyrazol-4-yl)-6,8-dihydro-5H-1,7-naphthyridin-7-yl]methanone] |  | ≥ 80% |  |  |  |
| Cc1nn(C)c(C)c1C1CN(C(=O)c2cc(-c3ccccc3)on2)Cc2ccccc21 (centres unmarked) [Compound P-148, (5-phenylisoxazol-3-yl)-[4-(1,3,5-trimethylpyrazol-4-yl)-3,4-dihydro-1H-isoquinolin-2-yl]methanone] | ≥ 80% | ≥ 80% | ≥ 80% |  |  |
| Cn1cc(C2CN(C(=O)c3nnc(-c4ccc(F)cc4)o3)Cc3ccccc32)cn1 (centres unmarked) [Compound P-56, [5-(4-fluorophenyl)-1,3,4-oxadiazol-2-yl]-[4-(1-methylpyrazol-4-yl)-3,4-dihydro-1H-isoquinolin-2-yl]methanone] |  | ≥ 80% |  |  |  |
| Cn1cc(C2CN(C(=O)c3cc(-c4ccsc4)on3)Cc3ccccc32)cn1 (centres unmarked) [Compound P-181, [4-(1-methylpyrazol-4-yl)-3,4-dihydro-1H-isoquinolin-2-yl]-[5-(3-thienyl)isoxazol-3-yl]methanone] | ≥ 80% | ≥ 80% | ≥ 80% |  | ≥ 80% |
| Cc1c(C2CN(C(=O)c3cc(-c4ccc(F)cc4F)on3)Cc3ccccc32)cnn1C (centres unmarked) [Compound P-140, [5-(2,4-difluorophenyl)isoxazol-3-yl]-[4-(1,5-dimethylpyrazol-4-yl)-3,4-dihydro-1H-isoquinolin-2-yl]methanone] |  | ≥ 80% |  |  |  |
| CCn1cc(C2CN(C(=O)c3cc(-c4ccc(F)cc4F)on3)Cc3ccccc32)cn1 (centres unmarked) [Compound P-131, [5-(2,4-difluorophenyl)isoxazol-3-yl]-[4-(1-ethylpyrazol-4-yl)-3,4-dihydro-1H-isoquinolin-2-yl]methanone] | ≥ 80% | ≥ 80% |  |  |  |
| Cn1cc(C2CN(C(=O)c3nnc(-c4ccccc4)o3)Cc3ccccc32)cn1 (centres unmarked) [Compound P-163, [4-(1-methylpyrazol-4-yl)-3,4-dihydro-1H-isoquinolin-2-yl]-(5-phenyl-1,3,4-oxadiazol-2-yl)methanone] |  | ≥ 80% |  |  |  |
